Converted amounts (≈) assume the structure as drawn. Each block holds one compound with its values, some of them ahead of it.
Assays:
[1] = test system: clinical strains of P. aeruginosa; test: microbe, parasite or virus in culture; assay type: cell-based, Pseudomonas aeruginosa; conditions: for MIC: Pseudomonas aeruginosa
Experimental: MICs (μg/ml, x-axis) for each compound are shown below each graph. […] The OD at 600 nm quantitates the extent of bacterial growth. Diamonds=L6K-F17; squares=tobramycin. Incubation: 37° C. for 19-24 hours.
Nine different clinical P. aeruginosa isolates were tested with a representative CAP, L-6KF17.

[2] = test system: clinically isolated P. aeruginosa mucoid strains (biofilm); test: Biofilm antibacterial susceptibility assay, biofilm recovery plate (BICs); assay type: cell-based, Pseudomonas aeruginosa
Experimental: (§1) The clinically isolated P. aeruginosa mucoid strains that were used in these experiments are described in Table 1.
(§2) Methods: Prep Work—3 Days Culture the Clinical Mucoid P. aeruginosa Strains Isolated from CF Patients • 1. Freshly subculture the glycerol stock of the strain (stored at −80° C.) by streaking onto a blood agar (3˜4 streaks). Incubate the blood agar plate at 37° C. for 24 hr. The consistency of the mucoid phenotype can be improved by further subculturing (e.g., a total of 3 times, one/day). • 2. The following day, pick a few colonies and streak them onto a fresh blood agar. Note: Every time the cells are cultured using the stock strains (stored at −80° C.), they should be subcultured 3 times in total, and the last blood agar plate is then good for about one week. In the following week, the strains can be re-subcultured from the last agar plate to grow fresh colonies—this needs only to be done once (no need to do it 3 times). If the mucoid phenotype is lost, the glycerol stocks (−80° C.) should be used, and subcultured 3 times. Biofilm Assay—Day 1 Grow Overnight Cell Culture • 1. Inoculate freshly cultured cells (see prep work) in 10 mL TSB, and grow overnight at 37° C. on a shaker. […] Biofilm Assay—Day 2 Biofilm Set-up • 1. Make 0.5 McFarland for each strain/organism (add ˜100 μL O/N culture to 2 mL 50% TSB): • 0.5 McFarland=10^8 CFU/mL. • To calibrate a colourimeter/turbidity meter: • Positive blank: place a solid marker in the holder; turn the left knob to adjust to zero. • Negative blank: use a glass tube containing 50% TSB (1:1 TSB/H2O); adjust the right knob to 100% T. • Non-mucoid strains should be read in the lower ‘red zone’ on a colorimeter/turbidity meter. • Mucoid strains should be a bit heavier, and read in the mid ‘red zone’. • 2. Make bacterial inoculums: to a 50 mL falcon tube, add 300 μL of 0.5 McFarland to 19.7 mL of TSB. • 3. Mix the tube gently by inverting. • 4. In the biosafety fume hood or beside the flame: • Label a 96-well plate: strain and time. • Pour inoculum into a reservoir. • Using the multi-channel pipet, add 150 μL of inoculum into each well, leave the last column empty (last column=negative control, no cells). • Carefully place a peg lid onto the plate, match the cut corners. • 5. Place the plate on a shaker in 37° C. incubator (requires ≥3 h). Checking Biofilm Plate Growth • 1. Check plates periodically using a plate-reader to determine OD readings: • At OD650, aim for ˜0.045-0.050. • Depending on the strain, require 3-28 h to grow. […] Loading Antibiotic Plates • 1. Place the peg lid (containing biofilm growth) of the susceptibility plate into a pre-made 96-well antibiotic plate (see protocol from Day 1; see FIG. 1). Incubate at 37° C. for 24 h. * This will be referred to the planktonic growth plate, which measures the planktonic susceptibility in the biofilm assay, or MICs. * • 2. Place the lid of 96-well antibiotic plate onto the previous susceptibility plate, and keep in the fridge for reference until the experiment is completed. • 3. Proceed to perform inoculum check (see below) Inoculum Check • 1. Purity check: • Take a loopful of bacteria culture from any well of the susceptibility plate. • Spread onto half of a blood agar plate. • Place in the incubator at 37° C. for 24 h. • 2. Inoculum check: • In sterile Eppendorf tubes or liver vials (need 4 per strain), prepare the following dilutions: • a. 10^2: […] from any well of the susceptibility plate. • b. 10^3: 900 μL of H2O and 100 μL of mixture from Step (a). • c. 10^4: 900 μL of H2O and 100 μL of mixture from Step (b). • d. 10^5: 900 μL of H2O and 100 μL of mixture from Step (c). • Split blood agar plates into quadrants: two for 10^4 and two for 10^5. • Take 50 μL from Step (c) or Step (d) and place onto blood agar plates. • Let dry for about 30 min in the hood with the lid closed, and then incubate upside-down at 37° C. for 18˜24 h.

[3] = test system: clinically isolated P. aeruginosa mucoid strains; test: microbe, parasite or virus in culture; conditions: Pseudomonas aeruginosa
Experimental: as §1, §2

Compound: C[C@H](NC(=O)[C@H](C)NC(=O)[C@H](Cc1ccccc1)NC(=O)[C@H](C)NC(=O)[C@H](C)NC(=O)[C@H](Cc1c[nH]c2ccccc12)NC(=O)[C@H](C)NC(=O)[C@H](C)NC(=O)[C@H](Cc1ccccc1)NC(=O)[C@H](C)NC(=O)[C@H](C)NC(=O)[C@H](CCCCN)NC(=O)[C@H](CCCCN)NC(=O)[C@H](CCCCN)NC(=O)[C@H](CCCCN)NC(=O)[C@H](CCCCN)NC(=O)[C@@H](N)CCCCN)C(N)=O [L-6KF17]
MIC compared with tobramycin ([1]; nine clinical P. aeruginosa isolates): equal to or superior to tobramycin in most cases

MIC ([3]; strain HSC 003B3-1, planktonic): ≤ 0.5 µg/mL | MIC ([3]; strain HSC 020B2-1, planktonic): 1 to 2 µg/mL (≈ 2.61 to 5.22 µM) | MIC ([3]; strain HSC 027B2-3, planktonic): 2 µg/mL (≈ 5.22 µM)
Compound: C[C@@H](O)[C@H]1C(=O)N2C(C(=O)O)=C(S[C@@H]3CN[C@H](C(=O)N(C)C)C3)[C@H](C)[C@H]12 [Meropenem, meropenem]
BIC ([2]; strain HSC 003B3-1, biofilm): ≤0.5 µg/mL | BIC ([2]; strain HSC 020B2-1, biofilm): 2 µg/mL | BIC ([2]; strain HSC 027B2-3, biofilm): 4 µg/mL

MIC ([1]; strain HSC 002B10-2): 1 µg/mL (≈ 2.14 µM) | MIC ([1]; strain HSC 004B1-3): 8 µg/mL (≈ 17.1 µM) | MIC ([1]; strain HSC 007E3-2): 8 µg/mL (≈ 17.1 µM) | MIC ([1]; strain HSC 035B7-1): > 32 µg/mL | MIC ([1]; strain SMH 064B15-2): 2 µg/mL (≈ 4.28 µM) | MIC ([1]; strain SMH 072B5-2): > 32 µg/mL | MIC ([1]; strain SMH 112B41): 2 µg/mL (≈ 4.28 µM) | MIC ([1]; strain SMH 130B12-1): 8 µg/mL (≈ 17.1 µM) | MIC ([1]; strain SMH 154B10-2): 16 µg/mL (≈ 34.2 µM) | MIC ([3]; strain HSC 003B3-1, planktonic): 2 to 8 µg/mL (≈ 4.28 to 17.1 µM) | MIC ([3]; strain HSC 020B2-1, planktonic): 32 to 64 µg/mL (≈ 68.4 to 137 µM) | MIC ([3]; strain HSC 027B2-3, planktonic): > 128 µg/mL | MIC ([3]; strain SMH 022B5-2, planktonic): ≤ 0.5 µg/mL | MIC ([3]; strain SMH 051B3-1, planktonic): ≤ 0.5 µg/mL | MIC ([3]; strain SMH 123E1-1, planktonic): ≤ 0.5 µg/mL
Compound: NC[C@H]1O[C@H](O[C@H]2[C@H](O)[C@@H](O[C@H]3O[C@H](CO)[C@@H](O)[C@H](N)[C@H]3O)[C@H](N)C[C@@H]2N)[C@H](N)C[C@@H]1O [Tobramycin, tobramycin]
BIC ([2]; strain HSC 003B3-1, biofilm): 8 to 64 µg/mL | BIC ([2]; strain HSC 020B2-1, biofilm): 128 µg/mL | BIC ([2]; strain HSC 027B2-3, biofilm): >128 µg/mL | BIC ([2]; strain SMH 022B5-2, biofilm): ≤0.5 µg/mL | BIC ([2]; strain SMH 051B3-1, biofilm): ≤0.5 µg/mL | BIC ([2]; strain SMH 123E1-1, biofilm): 0.5 to 1 µg/mL

From patent publication US10507227B2, “Cationic antimicrobial peptides” (The Hospital for Sick Children, priority 2014, dated 2019)
